Measured values from patent US20260183302A1, “PDK1 REGULATORY COMPOUND AND COMPOSITION CONTAINING THE SAME” (PROVIBIO CO., LTD., priority 2024, published 2026).

Tests used:
[1] = system: skin graft (BALB/c donor to C57BL/6 recipient); assay: In vivo skin graft immune suppression model; design: species or system C57BL/6 mice; conditions: 0.15 mg/kg twice daily
Protocol: To evaluate the immune-suppressive effects of the compounds according to the present invention, a skin graft animal model was established, and the efficacy of the compounds was analyzed in the model.
First, female BALB/c mice aged 7 weeks and weighing approximately 20 g were used as donor animals, and female C57BL/6 mice of the same age and weight were used as recipient animals. All experimental animals were supplied by HanabioTech Co., Ltd.
Prior to the experiment, the animals were acclimatized in SPF-certified facilities for one week and then used in the experiment. The housing conditions were maintained at a temperature of 22±2° C., relative humidity of 55+10%, and a 12-hour light-dark cycle.
To establish the skin graft model, a anesthetic solution consisting of ketamine, […], and PBS in a volume ratio of 1:1:3 was administered intraperitoneally to C57BL/6 mice to induce anesthesia.
The hair on the dorsal side of the anesthetized mice was removed and disinfected, followed by excision of the full-thickness skin using an 8 mm punch. Subsequently, skin of the same size was harvested from donor mice (BALB/c) and transplanted. […]
Subsequently, the proportions of CD3- and B220-positive cells were analyzed using a flow cytometer.

[2] = system: Human multiple myeloma, KMS26; assay: Relative cell viability, KMS26 (CCK-8); format: cell-based; conditions: KMS26, 1 μM
Protocol: After that, 10 μL of CCK-8 was added to each well, and the plate was incubated again at 37° C. in a 5% CO2 incubator for 2 hours.
In other words, when the survival rate of untreated cells (DMSO) is set at 100%, the relative cell survival rate in each group treated with the drug at different concentrations is indicated.

[3] = system: HCT-116 colon cancer cell lines; assay: Matrigel Invasion Assay on HCT-116 colon cancer cell line; format: cell-based, human; conditions: HCT-116, Matrigel, 24 hours treatment, vs DMSO
Protocol: To evaluate the metastasis inhibitory efficacy of the compounds of the present invention on HCT-116 colon cancer cell lines, an Invasion Assay using Matrigel was performed to assess the cells' invasion ability.
First, Matrigel was thawed on ice in RPMI-1640 medium without FBS, then diluted with DMEM at a ratio of 1:20.
The diluted Matrigel mixture was applied to the upper chamber at 100 μl per well, and 750 μl of RPMI-1640 without FBS was added to the lower chamber.
The plates were then incubated at 37° C. for 1 hour to allow the Matrigel to solidify.
After coating, the Matrigel mixture in the upper chamber was removed using a pipette, and the chamber was washed with RPMI without FBS.
Human-derived colorectal cancer cell line HCT-116, obtained from the Korean Cell Bank, was cultured in RPMI-1640 medium containing 10% FBS.
Following stabilization, the cells were harvested using Trypsin-EDTA treatment, centrifuged at 1,200 rpm for 3 minutes, the supernatant was removed, and the cells were resuspended in the same medium, the medium in the lower chamber was replaced with 750 μl of RPMI-1640 supplemented with 10% FBS, and the cells were seeded into the upper chamber at a density of 5×10^4 cells/well.
The cells were cultured for 24 hours after attachment, and then the compounds according to the present invention (G078, G085, G086, G088, G089, PBK-2024-010, PBK-2025-010, PBK-2025-013, PBK-2025-016) and the control substance DMSO were diluted and added to the upper chamber after removing the medium.
Additionally, the medium in the lower chamber was replaced with fresh RPMI-1640 containing FBS, and the culture was continued.
After an additional 24 hours, the medium was removed, and 1 ml of methanol was added for 10 minutes to fix the cells.
Subsequently, 1 ml of Hematoxylin was added and reacted for 5 minutes, followed by 1 ml of Eosin, which was reacted for 30 seconds. The sample was then washed with distilled water (DW).
After staining was complete, any remaining cells in the upper chamber were removed. Finally, the infiltrated cells were observed under a microscope, photographed, and the degree of infiltration was analyzed.

Compound	animals with graft pinkening and good blood flow ([1]; day 10 post-transplantation)	animals with graft pinkening and good blood flow ([1]; day 15 post-transplantation)	Relative cell viability (%) [2]	number of infiltrated cells (invasion) [3]
Nc1ncccc1C(=O)NCCCCCCCCCCCCN1CCNCC1 [Compound 14, 2-Amino-N-(12-(piperazin-1-yl)dodecyl)nicotinamide]	three out of five	one out of five		
12-[4-(2,2-dimethylmorpholin-4-yl)]dodecyl-N-(6-aminopurine-2-yl) carboxamide [Compound 11]			31.19%	reduction in the number of infiltrated cells
